Reference: article PMC10994617, “In silico study, synthesis, and antineoplastic evaluation of thiazole-based sulfonamide derivatives and their silver complexes with expected carbonic anhydrase inhibitory activity” (Journal of Medicine and Life, 2023)
Read-outs that look alike come from different tables or passages of the source.

Key:
MCF10A = experiment: MTT cytotoxicity assay, MCF10A normal breast epithelial cell line; format: cell-based; conditions: MCF10A normal cells, read-out: MCF10A IC50 (µM) ± SD
Description: (§1) To evaluate the antitumor activity of the newly synthesized sulfonamide carbonic anhydrase inhibitors (compounds M3, M4, and M5), we employed cell line assays using 3-(4,5-dimethylthiazol-2-yl)-2,5-diphenyltetrazolium (MTT). Two cell types were utilized in this study: MCF-7, a breast cancer cell line, to assess the effects of the compounds on cancer cells, and MCF10A, a normal breast epithelial cell line, to evaluate the effects on non-cancerous cells. These cell lines were procured from the Iranian National Cell Bank at the Pasteur Institute. MCF-7 cells were cultured in RPMI-1640 medium, while MCF10A cells were cultured in DMEM: F12 medium. Both media were supplemented with 10% fetal bovine serum (FBS), followed by the addition of antibiotics (100 µg/ml streptomycin and 100 units/ml penicillin). The cells were maintained in a humidified atmosphere at 37°C with 5% carbon dioxide. For cell passaging, a trypsin/EDTA solution (Gibco) and phosphate-buffered saline (PBS) were utilized. Cell viability was assessed using MTT from Sigma-Aldrich. Each type of cell (MCF-7 and MCF10A) was cultured separately in 96-well plates (1.4 × 10^4 cells per well with 200 µl of fresh medium) after a full day had passed (temperature of 37°C in a 5% CO2 environment). The supernatant was removed, and MTT solution at a concentration of 200 µl was added to each well and then incubated for four hours at a temperature of 37°C. After the end of the incubation period and to dissolve the formazan crystals, 100 µl of dimethyl sulfoxide (DMSO) was added, and the plate was left in a shaker at a temperature of 37°C until it was confirmed that all the crystals had completely dissolved. An ELISA reader (Model Wave xs2, BioTek) was used to measure cell vitality by absorption at 570 nm and calculate the IC50 values.

MCF-7 = experiment: MTT cytotoxicity assay, MCF-7 breast cancer cell line; format: cell-based, human; conditions: MCF-7, MTT
Description: as §1

[1] = Homo sapiens, MCF7, read-out: MCF-7 IC50 (µM) ± SD

Compound	IC50 (MCF10A; Homo sapiens, MCF-10A) [µM]	IC50 (MCF-7; [1]) [µM]	IC50 (MCF10A) [µM]	IC50 (MCF-7; read-out: MCF-7 IC50 (µM) ± SD) [µM]	IC50 (MCF-7; Homo sapiens, MCF7, read-out: IC50 against MCF-7 cells) [µg/mL]
NS(=O)(=O)c1ccc(Nc2csc(N=Cc3ccc(O)cc3)n2)cc1 (stereo in doubt) [Compound M3, (Z)-4-((2-((4-hydroxybenzylidene)amino)thiazol-4-yl)amino) benzene sulfonamide]	135 ± 4.19	87.7 ± 2.16	–	–	–
N.N.[Cl][Pt][Cl] [Cisplatin, reference compound]	–	–	13.6 ± 3.45	15.1 ± 2.25	–
CN(C)c1ccc(/C=N/c2nc(Nc3ccc(S(N)(=O)=O)cc3)cs2)cc1 [Compound M4]	52.5 ± 3.31	77.4 ± 3.31	–	–	77.4
